Data on 24 compounds can be found in patent publication US8952021B2, “Compounds for the prevention and treatment of cardiovascular disease” (Resverlogix Corp., priority 2009, dated 2015).

As a reminder, the melting point is the temperature of the solid-liquid transition.

For one series, the system named is ApoA-I mRNA. As to the kind of experiment: Quantification of ApoA-I mRNA in HepG2 cells (real-time PCR). The format is cell-based. The arrangement: key: Active: An active compound was defined as one that caused a ≧20% increase in ApoA-I mRNA at a concentration less than or equal to 100 μM. The conditions noted are these: fold induction relative to DMSO control, concentration less than or equal to 100 μM. As to the method:
In this example, ApoA-I mRNA in tissue culture cells was quantitated to measure the transcriptional up-regulation of ApoA-I when treated with a compound of the invention.
HepG2 cells (approximately 2×10^5 per well) were placed in a 24-well plate in approximately 400 μL MEM, supplemented with 0.5% (v/v) FBS, 24 h before addition of the compound of interest. At time of harvesting, the spent media was removed from the HepG2 cells and immediately placed on ice (for immediate use) or at −80° C. (for future use) in ApoA-I and albumin ELISAs. The cells remaining in the plate wells were rinsed in 200 μL PBS. PBS was carefully removed to avoid removing any loosely attached cells.
Once the PBS was removed, 85 μL cell lysis solution was added the cells in each well and incubated for 5-10 minutes at room temperature, to allow for complete cell lysis and detachment. mRNA was then prepared using the “mRNA Catcher PLUS plate” from Invitrogen, according to the protocol supplied. After the last wash, as much wash buffer as possible was aspirated without allowing the wells to dry. Elution Buffer (E3, 80 μL) was then added to each well. mRNA was then eluted by incubating the mRNA Catcher PLUS plate with Elution Buffer for 5 minutes at 68° C. and then immediately placing the plate on ice.
The eluted mRNA isolated was then used in a one-step real-time […] reaction, using components of the Ultra Sense Kit together with Applied Biosystems primer-probe mixes. Real-time PCR data was analyzed, using the Ct values, to determine the fold induction of each unknown sample, relative to the control (that is, relative to the control for each independent DMSO concentration).
An active compound was defined as one that caused a ≧20% increase in ApoA-I mRNA at a concentration less than or equal to 100 μM.
(In general: Quantitative PCR measures a nucleic acid by following its amplification.)

With `CCC(C)c1ccc(-n2c(-c3cc(C)c(OCCO)c(C)c3)nc3ccccc3c2=O)cc1` (stereo not drawn) [Example 1 and 2, 3-(4-sec-butylphenyl)-2-(4-(2-hydroxyethoxy)-3,5-dimethylphenyl)quinazolin-4(3H)-one], the melting point lay within 152 to 153 °C. For the compound `Cc1cc(-c2nc3ccccc3c(=O)n2-c2ccc(Br)cc2)cc(C)c1OCCO` [Example 3, 3-(4-bromophenyl)-2-(4-(2-hydroxyethoxy)-3,5-dimethylphenyl)quinazolin-4(3H)-one], the melting point fell in the range of 164 to 165 °C. For the same compound, the “Effect on ApoA-I mRNA levels” value in the series with ApoA-I mRNA is listed as “Active”. The like results for `CCC(C)c1ccc(-n2c(-c3cc(C)c(OCCO)c(C)c3)nc3ccncc3c2=O)cc1` (stereo not drawn) [Example 5, 3-(4-sec-butylphenyl)-2-(4-(2-hydroxyethoxy)-3,5-dimethylphenyl)pyrido[4,3-d]pyrimidin-4(3H)-one] were, in that order, 195 to 196 °C and “Active”. With `CCC(C)c1ccc(-n2c(-c3ccc(OCCO)cc3)nc3ccccc3c2=O)cc1` (stereo not drawn) [Example 6, 3-(4-sec-butylphenyl)-2-(4-(2-hydroxyethoxy)phenyl)quinazolin-4(3H)-one], the melting point is 172.8 to 174.9 °C. Moreover, the “Effect on ApoA-I mRNA levels” value with ApoA-I mRNA is on record as “Active”. Regarding `Cc1cc(-c2nc3ccccc3c(=O)n2-c2ccc(F)cc2)cc(C)c1OCCO` [Example 7, 3-(4-fluorophenyl)-2-(4-(2-hydroxyethoxy)-3,5-dimethylphenyl)quinazolin-4(3H)-one], the melting point was in the range of 95 to 97 °C. In addition, the “Effect on ApoA-I mRNA levels” value in the series on ApoA-I mRNA is given as “Active”. The corresponding values for `Cc1cc(-c2nc3ccccc3c(=O)n2-c2ccc(I)cc2)cc(C)c1OCCO` [Example 8, 2-(4-(2-hydroxyethoxy)-3,5-dimethylphenyl)-3-(4-iodophenyl)quinazolin-4(3H)-one] are 101 to 103 °C and “Active”.

Take `Cc1cc(-c2nc3ccccc3c(=O)n2-c2ccc(Cl)cc2)cc(C)c1OCCO` [Example 10, 3-(4-chlorophenyl)-2-(4-(2-hydroxyethoxy)-3,5-dimethylphenyl)quinazolin-4(3H)-one]: the melting point was 101 to 103 °C. Moreover, in the series on ApoA-I mRNA, the “Effect on ApoA-I mRNA levels” value is “Active”. As for `CCC(C)c1ccc(-n2c(-c3cc(C)c(OCCO)c(C)c3)nc3cc(S(C)(=O)=O)ccc3c2=O)cc1` (stereo not drawn) [Example 12, 3-(4-sec-butylphenyl)-2-(4-(2-hydroxyethoxy)-3,5-dimethylphenyl)-7-(methylsulfonyl)quinazolin-4(3H)-one], the melting point lay within 235 to 237 °C. The “Effect on ApoA-I mRNA levels” value in the series with ApoA-I mRNA was “Active”. The corresponding values for `CCC(C)c1ccc(-n2c(-c3cc(C)c(OCCO)c(C)c3)nc3ccc(OC)cc3c2=O)cc1` (stereo not drawn) [Example 13, 3-(4-sec-butylphenyl)-2-(4-(2-hydroxyethoxy)-3,5-dimethylphenyl)-6-methoxyquinazolin-4(3H)-one] are 152 to 154 °C and “Active”. On to `CCC(C)c1ccc(-n2c(-c3cc(C)c(OCCO)c(C)c3)nc3c(OC)cccc3c2=O)cc1` (stereo not drawn) [Example 14, 3-(4-sec-butylphenyl)-2-(4-(2-hydroxyethoxy)-3,5-dimethylphenyl)-8-methoxyquinazolin-4(3H)-one], for which the melting point was 158 to 159 °C. Moreover, the “Effect on ApoA-I mRNA levels” value in the series on ApoA-I mRNA is on record as “Active”.

Consider `CCC(C)c1ccc(-n2c(-c3cc(C)c(OCCO)c(C)c3)nc3ccc(S(C)(=O)=O)cc3c2=O)cc1` (stereo not drawn) [Example 15, 3-(4-sec-butylphenyl)-2-(4-(2-hydroxyethoxy)-3,5-dimethylphenyl)-6-(methylsulfonyl)quinazolin-4(3H)-one], for which the melting point fell in the range of 258.8 to 260.2 °C. The “Effect on ApoA-I mRNA levels” value with ApoA-I mRNA is “Active”.

Turning to `COc1ccc2nc(-c3cc(C)c(OCCO)c(C)c3)n(-c3ccc(Br)cc3)c(=O)c2c1` [Example 16, 3-(4-bromophenyl)-2-(4-(2-hydroxyethoxy)-3,5-dimethylphenyl)-6-methoxyquinazolin-4(3H)-one], the melting point was in the range of 160 to 162 °C. Moreover, the “Effect on ApoA-I mRNA levels” value with ApoA-I mRNA is on record as “Active”.

`COc1cccc2c(=O)n(-c3ccc(Br)cc3)c(-c3cc(C)c(OCCO)c(C)c3)nc12` [Example 17, 3-(4-bromophenyl)-2-(4-(2-hydroxyethoxy)-3,5-dimethylphenyl)-8-methoxyquinazolin-4(3H)-one] gave a melting point of 100 to 102 °C. In the series with ApoA-I mRNA, the “Effect on ApoA-I mRNA levels” value is reported as “Active”. In the case of `CN(C)c1ccc(-n2c(-c3ccc4[nH]ccc4c3)nc3ccccc3c2=O)cc1` [Example 80, 3-(4-(dimethylamino)phenyl)-2-(1H-indol-5-yl)quinazolin-4(3H)-one], the “Effect on ApoA-I mRNA levels” value in the series on ApoA-I mRNA is on record as “Active”. For the compound `O=c1c2ccccc2nc(-c2cnc3c(ccn3S(=O)(=O)c3ccccc3)c2)n1-c1ccc(Cl)cc1` [Example 81, 3-(4-chlorophenyl)-2-(1-(phenylsulfonyl)-1H-pyrrolo[2,3-b]pyridin-5-yl)quinazolin-4(3H)-one], the “Effect on ApoA-I mRNA levels” value with ApoA-I mRNA was “Active”. Still for that read-out and setting: then `CCC(C)c1ccc(-n2c(-c3ccc4[nH]c(CO)cc4c3)nc3ccccc3c2=O)cc1` (stereo not drawn) [Example 82, 3-(4-sec-butylphenyl)-2-(2-(hydroxymethyl)-1H-indol-5-yl)quinazolin-4(3H)-one], with “Active”; and `Cn1ccc2cc(-c3nc4ccccc4c(=O)n3-c3ccc(Cl)cc3)ccc21` [Example 83, 3-(4-chlorophenyl)-2-(1-methyl-1H-indol-5-yl)quinazolin-4(3H)-one], with “Active”; and `O=c1c2ccccc2nc(-c2ccc3[nH]ccc3c2)n1-c1ccc(C2CCCC2)cc1` [Example 84, 3-(4-cyclopentylphenyl)-2-(1H-indol-5-yl)quinazolin-4(3H)-one], with “Active”. Regarding `O=c1c2ccccc2nc(-c2ccc3cc[nH]c3c2)n1-c1ccc(Cl)cc1` [Example 85, 3-(4-chlorophenyl)-2-(1H-indol-6-yl)quinazolin-4(3H)-one], the “Effect on ApoA-I mRNA levels” value in the series with ApoA-I mRNA was “Active”.

On to `O=c1c2ccccc2nc(-c2cccc3cc[nH]c23)n1-c1ccc(Cl)cc1` [Example 86, 3-(4-chlorophenyl)-2-(1H-indol-7-yl)quinazolin-4(3H)-one], for which the “Effect on ApoA-I mRNA levels” value with ApoA-I mRNA was “Active”.

On to `CCC(C)c1ccc(-n2c(-c3ccc4cc[nH]c4c3)nc3ccccc3c2=O)cc1` (stereo not drawn) [Example 87, 3-(4-sec-butylphenyl)-2-(1H-indol-6-yl)quinazolin-4(3H)-one], for which the “Effect on ApoA-I mRNA levels” value with ApoA-I mRNA was “Active”.

For the compound `CCC(C)c1ccc(-n2c(-c3cccc4cc[nH]c34)nc3ccccc3c2=O)cc1` (stereo not drawn) [Example 88, 3-(4-sec-butylphenyl)-2-(1H-indol-7-yl)quinazolin-4(3H)-one], the “Effect on ApoA-I mRNA levels” value in the series on ApoA-I mRNA is given as “Active”. For the compound `O=c1c2ccccc2nc(-c2cccc3[nH]ccc23)n1-c1ccc(Cl)cc1` [Example 89, 3-(4-chlorophenyl)-2-(1H-indol-4-yl)quinazolin-4(3H)-one], the “Effect on ApoA-I mRNA levels” value in the series on ApoA-I mRNA was “Active”.

As for `CCC(C)c1ccc(-n2c(-c3cccc4[nH]ccc34)nc3ccccc3c2=O)cc1` (stereo not drawn) [Example 90, 3-(4-sec-butylphenyl)-2-(1H-indol-4-yl)quinazolin-4(3H)-one], the “Effect on ApoA-I mRNA levels” value in the series on ApoA-I mRNA was “Active”.
